Assay results from ChEMBL document CHEMBL1944611, “Genistein binding mode to doubly nicked dumbbell DNA. Dynamic and diffusion ordered NMR study” (J Med Chem, 2011).

What was measured:
Format in all cases: nucleic-acid assay
Nucleic Acid [1] = assay: Binding affinity to Doubly nicked dumbbell DNA 5'-TCGAACGC/iSp18/GCTG/3Phos/-3' at 1.9 mM DNA concentration and pH 6
Nucleic Acid [2] = assay: Binding affinity to Doubly nicked dumbbell DNA 5'-TCGAACGC/iSp18/GCTG/3Phos/-3' at 1 mM compound concentration and pH 6
Nucleic Acid [3] = assay: Binding affinity to Doubly nicked dumbbell DNA 5'-TCGAACGC/iSp18/GCTG/3Phos/-3' at 1 mM DNA concentration and pH 8.6
Nucleic Acid [4] = assay: Binding affinity to Doubly nicked dumbbell DNA 5'-TCGAACGC/iSp18/GCTG/3Phos/-3' at 1.4 mM compound concentration and pH 8.4
Nucleic Acid [5] = assay: Binding affinity to Doubly nicked dumbbell DNA 5'-TCGAACGC/iSp18/GCTG/3Phos/-3' at 1 mM compound concentration and pH 8.6
Nucleic Acid [6] = assay: Binding affinity to Doubly nicked dumbbell DNA 5'-TCGAACGC/iSp18/GCTG/3Phos/-3' at 1 mM DNA concentration and pH 8.4
Nucleic Acid [7] = assay: Binding affinity to Doubly nicked dumbbell DNA 5'-TCGAACGC/iSp18/GCTG/3Phos/-3' at 1.4 mM compound concentration and pH 9.2
Nucleic Acid [8] = assay: Binding affinity to Doubly nicked dumbbell DNA 5'-TCGAACGC/iSp18/GCTG/3Phos/-3' at 1 mM DNA concentration and pH 9.2

| Structure (SMILES) | Ka (Nucleic Acid [1]) [mM⁻¹] | Ka (Nucleic Acid [2]) [mM⁻¹] | Ka (Nucleic Acid [3]) [mM⁻¹] | Ka (Nucleic Acid [4]) [mM⁻¹] | Ka (Nucleic Acid [5]) [mM⁻¹] | Ka (Nucleic Acid [6]) [mM⁻¹] | Ka (Nucleic Acid [7]) [mM⁻¹] | Ka (Nucleic Acid [8]) [mM⁻¹] |
| --- | --- | --- | --- | --- | --- | --- | --- | --- |
| CN(C)Cc1c(O)c(CN(C)C)c2occ(-c3ccc(O)cc3)c(=O)c2c1O | 0.71 | 0.5 | – | – | – | – | – | – |
| O=c1c(-c2ccc(O)cc2)coc2cc(O)cc(O)c12 | – | – | 0.77 | 0.23 | 0.38 | 0.57 | 0.17 | 0.31 |
